# Laboratory results reported in the supplement of paper PMC10307832.
# What was measured:
# Assay in all cases: relative viability (nuclei count vs DMSO), 5 days (fraction); higher = more cells survive
# Veliparib + Pemetrexed = compound: C[C@]1(c2nc3c(C(N)=O)cccc3[nH]2)CCCN1 [Veliparib] + Nc1nc2[nH]cc(CCc3ccc(C(=O)N[C@@H](CCC(=O)O)C(=O)O)cc3)c2c(=O)[nH]1 [Pemetrexed] (partner 0.2 µM)
# Method in brief: (§1)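 Cells from lung cancer lines were seeded into 1536-well plates and, one day later, dosed by pin tool. Treatments were either a single drug or a fixed dose of an anchor drug with five library-drug doses (not always all listed) in √10 steps. After 5 days, nuclei were stained in a one-step fixation (final 0.05% Triton X-100, 1% formaldehyde, 1 ug/ml Hoechst) and counted on 4× images, and relative viability is the treated-to-vehicle nuclei ratio, as the median of duplicate plates.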
# [1] = compound: COC1=CC=C(C=C1)CN2C=CC3=C2C=C(C=C3)C(=O)NO + CC(=O)c1c(C)c2cnc(Nc3ccc(N4CCNCC4)cn3)nc2n(C2CCCC2)c1=O [Palbociclib] (partner 0.5 µM)
# Method in brief: as §1
# [2] = compound: COC1=CC=C(C=C1)CN2C=CC3=C2C=C(C=C3)C(=O)NO + Cc1nc(NC(=O)N2CCC[C@H]2C(N)=O)sc1-c1ccnc(C(C)(C)C(F)(F)F)c1 [Alpelisib] (partner 2 µM)
# Method in brief: as §1
# Veliparib + Pictilisib = compound: C[C@]1(c2nc3c(C(N)=O)cccc3[nH]2)CCCN1 [Veliparib] + CS(=O)(=O)N1CCN(Cc2cc3nc(-c4cccc5[nH]ncc45)nc(N4CCOCC4)c3s2)CC1 [Pictilisib] (partner 1 µM)
# Method in brief: as §1
Cell Line,relative viability (Veliparib + Pemetrexed; first compound 0.02 µM),relative viability (Veliparib + Pemetrexed; first compound 0.6325 µM),relative viability (Veliparib + Pemetrexed; first compound 2 µM),relative viability ([1]; first compound 0.08 µM),relative viability ([1]; first compound 0.253 µM),relative viability ([1]; first compound 0.8 µM),relative viability ([1]; first compound 2.53 µM),relative viability ([1]; first compound 8 µM),relative viability (Veliparib + Pemetrexed; first compound 0.06325 µM),relative viability (Veliparib + Pemetrexed; first compound 0.2 µM),relative viability ([2]; first compound 0.253 µM),relative viability ([2]; first compound 0.8 µM),relative viability ([2]; first compound 2.53 µM),relative viability ([2]; first compound 8 µM),relative viability (Veliparib + Pictilisib; first compound 0.06325 µM),relative viability (Veliparib + Pictilisib; first compound 0.2 µM),relative viability (Veliparib + Pictilisib; first compound 0.6325 µM),relative viability (Veliparib + Pictilisib; first compound 2 µM),relative viability ([2]; first compound 0.08 µM),relative viability (Veliparib + Pictilisib; first compound 0.02 µM)
NCI-H1648,1,1.02,0.709,0.254,0.309,0.298,0.277,0.269,–,–,–,–,–,–,–,–,–,–,–,–
NCI-H358,0.206,0.146,0.176,–,0.125,0.115,0.14,0.191,0.173,0.165,0.941,0.985,0.919,0.829,0.37,0.38,0.315,0.342,–,–
IA-LM,–,–,–,–,–,–,–,–,–,–,0.743,0.732,0.852,0.776,0.364,0.374,0.306,0.367,0.609,0.444
201T,0.345,0.352,0.362,0.338,0.368,0.371,0.358,0.365,0.334,0.355,1.08,1.07,1.03,1,0.623,0.682,0.678,0.658,0.948,0.682
LOU-NH91,0.394,0.374,0.374,–,0.537,0.548,0.574,0.529,0.374,0.39,0.71,0.769,0.731,0.69,0.436,0.563,0.528,0.531,0.635,0.506
ChaGo-K-1,0.227,0.246,0.257,–,0.914,0.928,0.904,0.874,0.266,0.245,–,–,–,–,0.55,0.86,0.914,0.718,–,–
NCI-H441,0.292,0.254,0.289,0.23,0.235,0.238,0.231,0.185,0.265,0.3,0.8,0.644,0.917,0.554,0.501,0.588,0.504,0.516,0.711,0.472
ABC-1,–,–,–,–,0.768,0.713,0.77,0.615,–,–,1.37,0.928,1,1.17,0.702,0.609,0.735,0.851,–,–
NCI-H661,0.973,0.865,0.901,–,0.406,0.403,0.422,0.353,0.897,0.918,0.464,0.595,0.512,0.626,0.317,0.354,0.359,0.393,–,0.397
BEN,0.576,0.795,0.631,0.468,0.466,0.487,0.52,0.489,0.771,0.743,1.07,1.06,0.967,0.929,0.572,0.594,0.577,0.628,0.972,0.517
UMC-11,0.931,0.804,0.759,–,0.361,0.29,0.331,0.343,0.749,0.878,0.986,0.92,1.12,1.05,0.891,0.817,0.876,0.883,0.526,0.779
NCI-H2023,–,0.221,0.231,0.36,0.355,0.433,0.359,0.365,0.212,0.27,0.646,0.507,0.586,0.639,0.238,0.251,0.209,0.224,0.58,0.196
NCI-H2126,0.716,0.647,0.675,0.34,0.339,0.368,0.361,0.376,0.732,0.71,0.798,0.744,0.804,0.836,0.452,0.507,0.458,0.537,0.738,0.531
EMC-BAC-2,0.492,0.442,0.502,0.401,–,0.528,0.511,0.459,0.408,0.438,0.749,0.799,0.77,0.71,0.542,0.569,0.524,0.541,0.633,0.483
NCI-H838,0.262,0.269,0.269,0.214,0.237,0.226,0.228,0.18,0.255,0.244,0.981,0.91,1.03,0.874,0.455,0.418,0.335,0.457,–,0.441
NCI-H322M,–,0.568,0.614,–,–,0.513,0.435,0.48,0.582,0.611,0.726,0.769,0.845,0.656,0.459,0.573,0.525,0.321,–,0.496
HCC-15,0.219,0.2,0.239,0.712,0.716,0.733,0.745,0.739,0.214,0.228,0.989,0.898,0.93,0.853,0.748,0.682,0.691,0.662,0.74,0.581
NCI-H1395,0.762,0.792,0.653,–,0.632,0.709,0.6,0.563,0.886,0.768,1.1,1.11,0.979,0.967,0.516,0.557,0.675,0.524,0.708,–
NCI-H596,0.475,0.509,0.474,–,–,–,–,–,0.451,0.463,0.53,0.384,0.561,0.474,0.35,0.4,0.362,0.416,0.532,0.394
